In PMC6704710, “Preclinical evaluation of 3D185, a novel potent inhibitor of FGFR1/2/3 and CSF-1R, in FGFR-dependent and macrophage-dominant cancer models” (Journal of Experimental & Clinical Cancer Research : CR, 2019):

Assays:
Assay in all cases: Eurofins kinase panel
Type in all cases: biochemical
Conditions in all cases: read-out: Inhibition rate (%)
JAK3(h) = target: T1, JAK3(h) (Homo sapiens, UniProt P52333)
T1 construct: purchased Eurofins (KinaseProfiler)
T1 sequence (P52333 1-1124): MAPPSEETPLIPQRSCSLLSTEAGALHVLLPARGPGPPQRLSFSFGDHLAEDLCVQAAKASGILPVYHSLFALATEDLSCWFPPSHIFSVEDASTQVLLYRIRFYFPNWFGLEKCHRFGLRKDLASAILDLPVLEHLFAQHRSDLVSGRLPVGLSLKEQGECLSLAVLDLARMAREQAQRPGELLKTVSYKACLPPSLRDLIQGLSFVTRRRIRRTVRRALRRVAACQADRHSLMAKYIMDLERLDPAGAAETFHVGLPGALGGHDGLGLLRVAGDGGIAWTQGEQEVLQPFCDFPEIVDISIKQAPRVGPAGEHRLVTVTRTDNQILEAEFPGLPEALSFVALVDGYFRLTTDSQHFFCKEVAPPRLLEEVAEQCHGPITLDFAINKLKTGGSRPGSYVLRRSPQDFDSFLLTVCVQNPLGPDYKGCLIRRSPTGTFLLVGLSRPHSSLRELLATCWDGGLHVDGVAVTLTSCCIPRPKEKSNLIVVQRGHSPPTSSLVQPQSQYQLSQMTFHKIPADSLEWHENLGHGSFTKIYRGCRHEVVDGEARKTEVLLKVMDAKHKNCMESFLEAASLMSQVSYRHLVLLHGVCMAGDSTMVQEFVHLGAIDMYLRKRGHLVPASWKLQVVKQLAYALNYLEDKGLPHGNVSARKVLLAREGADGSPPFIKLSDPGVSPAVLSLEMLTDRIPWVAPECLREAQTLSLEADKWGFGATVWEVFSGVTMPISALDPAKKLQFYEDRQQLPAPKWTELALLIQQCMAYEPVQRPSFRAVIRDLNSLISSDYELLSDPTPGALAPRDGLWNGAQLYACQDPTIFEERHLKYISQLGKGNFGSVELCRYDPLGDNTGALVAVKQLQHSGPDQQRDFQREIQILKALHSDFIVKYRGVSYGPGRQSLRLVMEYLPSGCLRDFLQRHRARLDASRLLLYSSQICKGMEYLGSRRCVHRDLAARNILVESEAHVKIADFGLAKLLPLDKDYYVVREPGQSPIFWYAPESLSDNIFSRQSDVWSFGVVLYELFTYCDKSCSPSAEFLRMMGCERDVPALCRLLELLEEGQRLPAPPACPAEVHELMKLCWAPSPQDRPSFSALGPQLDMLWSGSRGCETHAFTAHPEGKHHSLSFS

Met(Y1248H)(h) = target: T2, Met(Y1248H)(h) (Homo sapiens, UniProt P08581, Y1230H)
T2 construct: purchased Eurofins (KinaseProfiler)

NEK1(h) = target: T3, NEK1(h) (Homo sapiens, UniProt Q96PY6)
T3 construct: purchased Eurofins (KinaseProfiler)
T3 sequence (Q96PY6 1-1258): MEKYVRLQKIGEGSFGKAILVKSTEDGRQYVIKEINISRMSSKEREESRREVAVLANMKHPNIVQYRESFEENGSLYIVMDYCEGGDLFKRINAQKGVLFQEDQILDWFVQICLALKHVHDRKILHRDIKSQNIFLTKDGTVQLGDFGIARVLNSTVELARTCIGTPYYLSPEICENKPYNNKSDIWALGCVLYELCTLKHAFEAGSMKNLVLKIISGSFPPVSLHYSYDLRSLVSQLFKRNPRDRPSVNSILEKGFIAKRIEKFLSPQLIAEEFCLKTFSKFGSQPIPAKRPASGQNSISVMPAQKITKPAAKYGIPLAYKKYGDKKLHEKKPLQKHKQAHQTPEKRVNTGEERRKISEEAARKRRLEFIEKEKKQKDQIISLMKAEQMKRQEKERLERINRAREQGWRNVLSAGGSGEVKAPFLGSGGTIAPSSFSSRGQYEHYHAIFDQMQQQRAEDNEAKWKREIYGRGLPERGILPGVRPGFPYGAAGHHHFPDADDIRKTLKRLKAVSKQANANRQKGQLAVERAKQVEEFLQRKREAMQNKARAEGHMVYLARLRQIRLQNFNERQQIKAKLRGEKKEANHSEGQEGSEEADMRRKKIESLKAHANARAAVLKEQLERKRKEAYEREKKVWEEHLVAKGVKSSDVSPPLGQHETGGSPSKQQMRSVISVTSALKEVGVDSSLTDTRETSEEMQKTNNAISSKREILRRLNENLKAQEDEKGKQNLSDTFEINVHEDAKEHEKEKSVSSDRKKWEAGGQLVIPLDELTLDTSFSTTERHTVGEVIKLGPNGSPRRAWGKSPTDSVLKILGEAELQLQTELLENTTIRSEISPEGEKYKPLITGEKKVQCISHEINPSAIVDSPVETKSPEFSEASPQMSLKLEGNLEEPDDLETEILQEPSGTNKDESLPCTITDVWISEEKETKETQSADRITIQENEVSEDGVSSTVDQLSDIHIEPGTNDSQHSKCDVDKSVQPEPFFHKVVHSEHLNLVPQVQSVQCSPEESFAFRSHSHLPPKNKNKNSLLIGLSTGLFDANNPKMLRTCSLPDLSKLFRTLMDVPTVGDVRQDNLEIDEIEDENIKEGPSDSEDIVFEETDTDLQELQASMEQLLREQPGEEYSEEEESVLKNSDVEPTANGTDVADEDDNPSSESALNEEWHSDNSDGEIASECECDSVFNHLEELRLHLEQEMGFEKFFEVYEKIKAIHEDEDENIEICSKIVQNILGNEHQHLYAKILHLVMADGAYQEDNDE

MELK(h) = target: T4, MELK(h) (Homo sapiens, UniProt Q14680)
T4 construct: purchased Eurofins (KinaseProfiler)

PIP5K1α(h) = target: T5, PIP5K1α(h) (Homo sapiens, UniProt Q99755)
T5 construct: purchased Eurofins (KinaseProfiler)

Fes(h) = target: T6, Fes(h) (Homo sapiens, UniProt P07332)
T6 construct: purchased Eurofins (KinaseProfiler)
T6 sequence (P07332 whole entry): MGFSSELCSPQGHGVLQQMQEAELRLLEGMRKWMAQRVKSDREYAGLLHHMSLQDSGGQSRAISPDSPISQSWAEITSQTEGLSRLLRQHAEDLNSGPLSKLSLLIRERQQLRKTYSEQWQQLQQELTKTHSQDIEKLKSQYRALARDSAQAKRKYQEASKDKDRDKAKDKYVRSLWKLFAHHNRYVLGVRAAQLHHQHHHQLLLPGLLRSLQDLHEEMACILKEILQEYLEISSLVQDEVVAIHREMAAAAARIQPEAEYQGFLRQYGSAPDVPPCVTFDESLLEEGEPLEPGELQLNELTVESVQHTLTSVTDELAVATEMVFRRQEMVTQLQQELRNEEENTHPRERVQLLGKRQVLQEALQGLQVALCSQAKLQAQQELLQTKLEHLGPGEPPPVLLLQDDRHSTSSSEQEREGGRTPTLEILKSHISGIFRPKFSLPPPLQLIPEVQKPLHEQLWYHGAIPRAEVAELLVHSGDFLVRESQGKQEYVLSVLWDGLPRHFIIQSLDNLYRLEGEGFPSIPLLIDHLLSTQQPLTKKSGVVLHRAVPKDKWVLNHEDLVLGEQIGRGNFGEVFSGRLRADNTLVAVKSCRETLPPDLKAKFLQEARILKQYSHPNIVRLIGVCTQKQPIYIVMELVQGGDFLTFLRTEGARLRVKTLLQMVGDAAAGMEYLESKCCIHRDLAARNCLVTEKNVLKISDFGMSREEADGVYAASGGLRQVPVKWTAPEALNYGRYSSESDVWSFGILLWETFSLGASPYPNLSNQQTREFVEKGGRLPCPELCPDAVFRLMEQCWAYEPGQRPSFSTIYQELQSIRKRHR

T2 sequence (P08581 956-1390 Y1230H limits assumed): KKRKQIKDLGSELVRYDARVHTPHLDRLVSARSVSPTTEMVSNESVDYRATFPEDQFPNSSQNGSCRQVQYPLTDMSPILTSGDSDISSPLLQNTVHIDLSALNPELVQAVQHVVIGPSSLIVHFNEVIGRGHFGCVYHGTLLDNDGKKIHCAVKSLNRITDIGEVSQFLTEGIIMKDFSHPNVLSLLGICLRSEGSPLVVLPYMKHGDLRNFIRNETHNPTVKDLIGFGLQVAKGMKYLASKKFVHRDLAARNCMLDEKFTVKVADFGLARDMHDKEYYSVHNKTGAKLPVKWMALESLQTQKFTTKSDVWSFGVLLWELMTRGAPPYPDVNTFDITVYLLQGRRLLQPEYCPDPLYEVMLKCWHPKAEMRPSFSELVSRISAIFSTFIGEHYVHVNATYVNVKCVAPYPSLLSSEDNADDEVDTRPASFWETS
T4 sequence (Q14680 whole entry): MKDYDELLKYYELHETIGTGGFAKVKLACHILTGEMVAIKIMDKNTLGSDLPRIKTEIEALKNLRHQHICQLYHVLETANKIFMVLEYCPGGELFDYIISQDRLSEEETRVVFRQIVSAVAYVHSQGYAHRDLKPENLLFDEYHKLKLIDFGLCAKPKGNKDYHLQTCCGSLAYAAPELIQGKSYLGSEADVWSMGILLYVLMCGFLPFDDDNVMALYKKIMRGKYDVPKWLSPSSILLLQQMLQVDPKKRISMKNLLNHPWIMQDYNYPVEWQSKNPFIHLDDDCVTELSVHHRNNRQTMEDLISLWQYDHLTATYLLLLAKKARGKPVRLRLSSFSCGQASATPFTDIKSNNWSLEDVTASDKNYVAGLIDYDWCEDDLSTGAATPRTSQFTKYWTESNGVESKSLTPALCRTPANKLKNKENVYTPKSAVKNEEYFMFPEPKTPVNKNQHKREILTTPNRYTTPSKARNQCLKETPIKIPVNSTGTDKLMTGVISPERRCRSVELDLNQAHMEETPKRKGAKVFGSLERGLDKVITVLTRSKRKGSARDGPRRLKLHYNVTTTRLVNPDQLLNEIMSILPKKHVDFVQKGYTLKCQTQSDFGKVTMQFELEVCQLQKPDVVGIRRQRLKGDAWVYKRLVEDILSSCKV
T5 sequence (Q99755 whole entry): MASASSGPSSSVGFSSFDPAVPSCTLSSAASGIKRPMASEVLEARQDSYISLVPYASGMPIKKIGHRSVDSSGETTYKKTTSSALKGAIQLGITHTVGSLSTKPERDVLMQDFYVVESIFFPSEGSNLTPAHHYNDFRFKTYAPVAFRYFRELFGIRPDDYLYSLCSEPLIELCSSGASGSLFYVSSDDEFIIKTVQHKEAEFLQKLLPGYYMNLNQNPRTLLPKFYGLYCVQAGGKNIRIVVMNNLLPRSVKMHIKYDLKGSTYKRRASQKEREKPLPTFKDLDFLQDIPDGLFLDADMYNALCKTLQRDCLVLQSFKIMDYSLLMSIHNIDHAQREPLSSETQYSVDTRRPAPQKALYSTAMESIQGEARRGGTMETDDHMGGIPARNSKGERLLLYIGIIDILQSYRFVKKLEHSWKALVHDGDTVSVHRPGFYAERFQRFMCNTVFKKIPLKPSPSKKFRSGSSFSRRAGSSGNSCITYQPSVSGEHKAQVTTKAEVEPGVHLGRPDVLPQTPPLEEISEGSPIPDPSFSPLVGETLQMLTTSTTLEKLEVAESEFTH

COc1cc(OC)c(Cl)c(-c2ccc3c(NC(=O)c4ccc(N5CCNC(C)(C)C5)cc4)n[nH]c3n2)c1Cl [3D185]
inhibition at 0.01 µM (JAK3(h); 10 nM): -11%
inhibition at 0.1 µM (JAK3(h); 100 nM): 0%
inhibition at 1 µM (JAK3(h); 1000 nM): 10%
inhibition at 0.01 µM (Met(Y1248H)(h); 10 nM): -16%
inhibition at 0.1 µM (Met(Y1248H)(h); 100 nM): 8%
inhibition at 1 µM (Met(Y1248H)(h); 1000 nM): 46%
inhibition at 0.01 µM (NEK1(h); 10 nM): 5%
inhibition at 0.1 µM (NEK1(h); 100 nM): 3%
inhibition at 1 µM (NEK1(h); 1000 nM): 11%
inhibition at 0.01 µM (MELK(h); 10 nM): -1%
inhibition at 0.1 µM (MELK(h); 100 nM): 8%
inhibition at 1 µM (MELK(h); 1000 nM): 14%
inhibition at 0.01 µM (PIP5K1α(h); 10 nM): -1%
inhibition at 0.1 µM (PIP5K1α(h); 100 nM): -4%
inhibition at 1 µM (PIP5K1α(h); 1000 nM): -9%
inhibition at 0.01 µM (Fes(h); 10 nM): -8%
inhibition at 0.1 µM (Fes(h); 100 nM): 36%
inhibition at 1 µM (Fes(h); 1000 nM): 91%
